For assay [1], the target named is BCL-2 (chimeric human BCL-2). Description: SPR binding assay, BCL-2. As to conditions: affinity fitting, mean ± SD of three independent experiments, 25 °C. An excerpt:
(§1) The DNA fragments encoding human BCL-XL ([…], with […] removed), BCL-w (residues 6–152), MCL-1 (residues 152–308) and BFL-1 (residues 1–151) as previously reported[18] were cloned into a pET-22b vector (Invitrogen), respectively. A chimeric human BCL-2 (including residues 1–50 and 92–207) was constructed, by removing the internal long loop (residues 51–91) and replacing its residues 35–50 with residues 33–48 of BCL-XL to solubilize the protein[14], and then it was cloned into a pET28a-Sumo vector (Invitrogen). All BCL-2 mutants (G101V, F104L, Y103D, D111A) were generated by mutagenic PCR, according to the QuikChange (Stratagene) protocol.
(§2) SPR assays were performed using a Biacore T200 instrument in running buffer consisting 10 mM PBS, 50 μM EDTA and 0.05% Tween-20 at 25 °C. Biotinylated proteins were immobilized on a CAP sensor chip (Cytiva, 28920234). […] The binding affinities were quantified by the Biacore evaluation software using 1:1 binding model. The reproducibility of the assays was confirmed by performing replicate determinations.
In general terms: SPR reads the build-up and loss of mass on a sensor chip optically.

Another assay has as its target T1, BCL-XL (Homo sapiens, UniProt Q07817, DEL27-81).
T1 construct: human BCL-XL (residues 1–210, with 27–81 and 210–233 removed); vector-borne tag of pET-22b (Ni-NTA purification implies a His tag); made in house; host or cells: E. coli BL21 (DE3)
Description: SPR binding assay, BCL-XL. As to conditions: affinity fitting, mean ± SD of three independent experiments, 25 °C.
Excerpt: as §1, §2

A further assay has as its system MGC-803 cells. Description: Cell viability assay (CellTiter-Glo), MGC-803. The class given is cell-based. As to conditions: for inhibition rate: fraction; for inhibition rate / raw viability reading: replicates. The protocol: (§3) The cell lines Jurkat (TIB-152), El4 (TIB-39), Daudi (ccl-213), RS4:11 (crl-1873), A549 (ccl-185), HepG2 (hb-8065) and PANC-1 (crl-1469) were purchased from ATCC (American Type Culture Collection), and MGC-803 (C6582) was purchased from Beyotime (https://www.beyotime.com/product/C6582.htm). […] Daudi and RS4:11 cells were cultured in RPMI-1640 medium (HyClone, SH30809.01) and 10% FBS (Gibco, 10099-141), whereas HepG2, MGC-803 and PANC-1 cells were cultured in MDEM (HyClone, SH30243.01). Cells were maintained at 37 °C under a humidified, 5% (v/v) CO2-containing atmosphere.
(§4) Cell viability was measured using CellTiter-Glo® 2.0 Reagent (Promega, G9242). […] After different inhibitors were added into serum-free medium and cultured for 4 h (RS4:11 for 6 h), FBS were supplemented to 10% and then incubated totally for 24 h or 48 h. Finally, the IC50 values were calculated based on measurements using a microplate reader (Thermo, Varioskan LUX). Statistical analysis was performed using software GraphPad Prism 7.0.
(§5) Supplementary Figure 10 Functional mechanism of CPs. a. IC50 values of venetoclax against A549, MGC-803 and PANC-1 cells, measured after 48 h treatment by a CellTiter-Glo assay and calculated using Prism 7.0 by a nonlinear-fit method. Data are presented as mean ± s.d.; n= 6 biological replicates. b. […]
(§6) Glo assay. Each data point represents the mean ± s.d. for 6 biological replicates.
(§7) Supplementary Figure 11 IC50 values of different inhibitors against different cell lines. a-d. Viability of A549 (a), HepG2 (b), MGC-803 (c) and PANC-1 (d) cells treated with various concentrations of ABT-199 (venetoclax), and measured after 48 h by a CellTiter-Glo assay. e, f. Viability of Jurkat cells (e) and Daudi cells (f) treated with […]
(§8) after 48 h by a CellTiter-Glo assay. Each data point represents the mean ± s.d. for 6 biological replicates.
(§9) (1 picture or pasted object on this page, not shown here)

A further assay relates to PANC-1 cells. The experiment in a line: Cell viability assay (CellTiter-Glo), PANC-1. As to conditions: PNAC-1; for inhibition rate: fraction; for inhibition rate / raw viability reading: replicates. The class given is cell-based. The protocol: as §3, §4, §5, §6, §7, §8, §9
For orientation: ATP-based viability assays read luminescence as a measure of living cells.

For a further assay, the system named is Jurkat cells. The experiment in a line: Mitochondrial membrane potential (JC-1), flow cytometry and fluorescence microscopy. The class given is cell-based. As to conditions: Jurkat. The method, then:
For the mitochondrial membrane potential (ΔΨm) analysis, the mitochondrial membrane potential assay kit with JC-1 dye (Beyotime, C2006) was used according to the manufacturer’s protocol. […] The value of ΔΨm was expressed as the ratio of red fluorescence intensity over green fluorescence intensity. After treated with JC-1, fluorescence intensity of Jurkat cells was tested by flow cytometry (BD FACSAria Fusion) and fluorescence microscopy (NIKON Ti-E), respectively. All experiments were performed in triplicate. Statistical analysis was performed using software GraphPad Prism 7.0.

Molecules are shown by their SMILES. “And” between values parts separate entries of the source, which are not always exact repeats. Equal values may be shown once.

T1 sequence (Q07817 with tags, fused parts or gaps DEL27-81): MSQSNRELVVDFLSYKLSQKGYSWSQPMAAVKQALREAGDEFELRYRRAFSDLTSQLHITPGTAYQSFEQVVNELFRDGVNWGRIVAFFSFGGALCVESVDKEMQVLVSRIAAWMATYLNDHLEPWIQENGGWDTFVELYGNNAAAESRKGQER

What is called Kd is the constant that tells how readily two partners part at equilibrium. The low end stands for tighter binding, the high end for weaker binding. `O=C(c1cc(-c2cc3c(cc2C(=O)N2Cc4ccccc4C[C@H]2CN2CCOCC2)OCO3)n2c1CCCC2)N(c1ccccc1)c1ccc(O)cc1` [S55746]: the values for the Kd (in assay [1]; at BCL-XL) were 6 ± 2 nM and 175 ± 42 nM, respectively.
In the case of `CC1(C)CCC(CN2CCN(c3ccc(C(=O)NS(=O)(=O)c4ccc(NCC5CCOCC5)c([N+](=O)[O-])c4)c(Oc4cnc5[nH]ccc5c4)c3)CC2)=C(c2ccc(Cl)cc2)C1` [venetoclax], the “average (raw viability reading)” value worked out at 557867 in the assay with MGC-803 cells (ABT199 0.3125 uM); 500400 with MGC-803 cells (ABT199 0.625 uM); 506350 with MGC-803 cells (ABT199 1.25 uM); 356233 in the assay on MGC-803 cells (ABT199 2.5 uM); 295000 with MGC-803 cells (ABT199 5 uM); 171300 in the assay on MGC-803 cells (ABT199 10 uM). In addition, the “average (raw viability reading)” value with MGC-803 cells (ABT199 20 uM) was 77771.7; with PANC-1 cells (ABT199 0.625 uM), 745567; with PANC-1 cells (ABT199 1.25 uM), 742283; in the assay with PANC-1 cells (ABT199 2.5 uM), 777083; in the assay with PANC-1 cells (ABT199 5 uM) it was 562150; in the assay with PANC-1 cells (ABT199 10 uM), 446683. In the assay on PANC-1 cells (ABT199 20 uM), the “average (raw viability reading)” value is given as 384133. For the same molecule, the inhibition rate was 0.2027 and 0.1767 and 0.1757 and 0.1522 and 0.1169 and 0.1408 with MGC-803 cells (ABT199 0.3125 uM); 0.2793 and 0.2709 and 0.2616 and 0.2533 and 0.2176 and 0.2009 in the assay with MGC-803 cells (ABT199 0.625 uM); 0.2765 and 0.2507 and 0.2473 and 0.2351 and 0.2002 and 0.2202 in the assay with MGC-803 cells (ABT199 1.25 uM); 0.4666 and 0.4612 and 0.464 and 0.4702 and 0.4562 in the assay with MGC-803 cells (ABT199 2.5 uM); 0.6033 and 0.5602 and 0.5626 and 0.5469 and 0.5313 and 0.5332 in the assay on MGC-803 cells (ABT199 5 uM); 0.7623 and 0.7504 and 0.748 and 0.7419 and 0.7262 and 0.725 in the assay on MGC-803 cells (ABT199 10 uM). Further, the inhibition rate with MGC-803 cells (ABT199 20 uM) was 0.8931 and 0.8865 and 0.8872 and 0.8828 and 0.8769 and 0.8715; in the assay on PANC-1 cells (ABT199 0.625 uM), -0.00675 and 0.06232 and 0.04686 and 0.01357 and 0.002949; with PANC-1 cells (ABT199 1.25 uM), 0.02549 and 0.03519 and 0.03296 and 0.02484 and -0.003211 and 0.04725; in the assay on PANC-1 cells (ABT199 2.5 uM) it was -0.04175 and 0.01278 and 0.00793 and -0.01999 and -0.04882 and -0.0213; with PANC-1 cells (ABT199 5 uM), 0.3097 and 0.2596 and 0.2661 and 0.2453 and 0.2389; with PANC-1 cells (ABT199 10 uM), 0.4023 and 0.4323 and 0.4298 and 0.4149 and 0.4042 and 0.4036. In addition, the inhibition rate in the assay on PANC-1 cells (ABT199 20 uM) was 0.5271 and 0.5025 and 0.4945 and 0.4865 and 0.4715 and 0.4971. The raw viability reading is 548000 and 563600 and 587100 and 571200 and 530000 and 547300 with MGC-803 cells (ABT199 0.3125 uM); 490900 and 496400 and 520100 and 531200 and 479100 and 484700 in the assay on MGC-803 cells (ABT199 0.625 uM); 500400 and 508500 and 531700 and 518400 and 481000 and 498100 in the assay on MGC-803 cells (ABT199 1.25 uM); 356300 and 352200 and 361500 and 354600 and 358200 in the assay on MGC-803 cells (ABT199 2.5 uM); 290800 and 301200 and 311600 and 310300 and 263700 and 292400 in the assay on MGC-803 cells (ABT199 5 uM); 167500 and 171600 and 182000 and 182800 and 158000 and 165900 with MGC-803 cells (ABT199 10 uM). For the same molecule, the raw viability reading in the assay on MGC-803 cells (ABT199 20 uM) is 75000 and 77910 and 81820 and 85400 and 71050 and 75450; with PANC-1 cells (ABT199 0.625 uM) it was 768100 and 715400 and 727200 and 752600 and 760700 and 749400; with PANC-1 cells (ABT199 1.25 uM), 743500 and 736100 and 737800 and 744000 and 765400 and 726900; with PANC-1 cells (ABT199 2.5 uM), 794800 and 753200 and 756900 and 778200 and 800200 and 779200; in the assay on PANC-1 cells (ABT199 5 uM), 526700 and 564900 and 559900 and 575800 and 580700; with PANC-1 cells (ABT199 10 uM), 456000 and 433100 and 435000 and 446400 and 454600 and 455000. Besides, the raw viability reading in the assay with PANC-1 cells (ABT199 20 uM) is 360800 and 379600 and 385700 and 391800 and 403200 and 383700. Also, in the assay on Jurkat cells (4 h treatment, JC-1, flow cytometry, n = 3), the “ΔΨm (ratio of red over green fluorescence, Q1/Q3)” value is 0.1. Also, in the assay with Jurkat cells (24 h treatment (Supplementary Fig. 13)), the “Relative ΔΨm by JC-1 fluorescence staining (microscopy)” value is “red fluorescence almost disappeared”.
